Experimental data published in patent US20100075965A1, “PI3 KINASE INHIBITORS AND METHODS OF THEIR USE” (Novartis AG, priority 2006, published 2010).

Columns and labels:
[1] = target: PI3 K Alpha (Homo sapiens, UniProt P42336); assay: PI3 kinase phosphorylation assays (homogenous solution phase, one step solid phase, ATP depletion/KinaseGlo); type: biochemical; conditions: read-out: PI3K Alpha IC50
[2] = tested on: A2780 cells; assay: Viability assay in A2780 (Cell Titer Glo); type: cell-based, human; conditions: Homo sapiens; A2780 cells; read-out: A2780 Cell prolif. EC50
Method: Cell viability was assessed with Cell Titer Glo assay, Promega. Cells were seeded in TC treated 96-well plates at a density of 1,000 (A2780 cells) per well in DMEM with 10% FBS, 1% Sodium Pyruvate, and 1% Penicillin Streptomycin for a minimum of 2 hrs prior to addition of compound. Test compounds were serially diluted (3 fold) in DMSO to 500× the final concentration. For each concentration of test compound, 2 μL (500×) aliquots of compound or 100% DMSO (control) were diluted in 500 μL of culture medium to 2× final concentration then diluted 1× on the cells. Cells were incubated for 72 hrs at 37° C., 5% CO2. After which Cell Titer Glo is added to determine viable cells, the assay was performed according to the manufacturer's instruction (Promega Corporation, Madison, Wis. USA). Each experimental condition was performed in duplicate. Raw data was imported in Abase and EC50s calculated with XL-fit data analysis software and are shown in Tables 1 and 2 in the column labeled “A2780 Cell prolif. EC50”.

Sequence of PI3 K Alpha (P42336 whole entry): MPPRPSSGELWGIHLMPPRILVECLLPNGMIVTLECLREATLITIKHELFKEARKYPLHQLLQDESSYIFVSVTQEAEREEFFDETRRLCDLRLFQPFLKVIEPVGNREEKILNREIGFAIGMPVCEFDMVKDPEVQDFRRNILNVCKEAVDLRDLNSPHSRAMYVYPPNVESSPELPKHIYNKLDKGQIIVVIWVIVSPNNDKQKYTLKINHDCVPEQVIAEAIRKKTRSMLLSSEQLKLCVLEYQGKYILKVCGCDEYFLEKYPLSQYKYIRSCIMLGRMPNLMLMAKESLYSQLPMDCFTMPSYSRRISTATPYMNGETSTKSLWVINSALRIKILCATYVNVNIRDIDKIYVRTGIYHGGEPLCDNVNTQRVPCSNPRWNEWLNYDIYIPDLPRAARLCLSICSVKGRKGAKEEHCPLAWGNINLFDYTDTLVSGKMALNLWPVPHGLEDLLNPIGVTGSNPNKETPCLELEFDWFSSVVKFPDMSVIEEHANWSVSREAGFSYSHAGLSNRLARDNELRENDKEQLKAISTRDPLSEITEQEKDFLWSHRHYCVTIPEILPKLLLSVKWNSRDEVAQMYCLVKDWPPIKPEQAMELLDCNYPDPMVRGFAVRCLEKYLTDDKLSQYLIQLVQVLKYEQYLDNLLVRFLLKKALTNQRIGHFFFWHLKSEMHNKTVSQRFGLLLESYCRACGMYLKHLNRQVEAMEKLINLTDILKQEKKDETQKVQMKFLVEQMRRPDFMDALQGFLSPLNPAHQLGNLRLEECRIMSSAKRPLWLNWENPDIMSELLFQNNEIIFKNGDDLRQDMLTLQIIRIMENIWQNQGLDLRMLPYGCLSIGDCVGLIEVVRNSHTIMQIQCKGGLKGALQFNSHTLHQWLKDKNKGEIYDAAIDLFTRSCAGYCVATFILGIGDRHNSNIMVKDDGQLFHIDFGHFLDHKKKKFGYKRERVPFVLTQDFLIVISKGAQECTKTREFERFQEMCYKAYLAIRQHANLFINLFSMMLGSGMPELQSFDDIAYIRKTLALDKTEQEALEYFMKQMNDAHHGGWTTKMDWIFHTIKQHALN
Sequence of PI3 K Alpha (P27986 whole entry partner): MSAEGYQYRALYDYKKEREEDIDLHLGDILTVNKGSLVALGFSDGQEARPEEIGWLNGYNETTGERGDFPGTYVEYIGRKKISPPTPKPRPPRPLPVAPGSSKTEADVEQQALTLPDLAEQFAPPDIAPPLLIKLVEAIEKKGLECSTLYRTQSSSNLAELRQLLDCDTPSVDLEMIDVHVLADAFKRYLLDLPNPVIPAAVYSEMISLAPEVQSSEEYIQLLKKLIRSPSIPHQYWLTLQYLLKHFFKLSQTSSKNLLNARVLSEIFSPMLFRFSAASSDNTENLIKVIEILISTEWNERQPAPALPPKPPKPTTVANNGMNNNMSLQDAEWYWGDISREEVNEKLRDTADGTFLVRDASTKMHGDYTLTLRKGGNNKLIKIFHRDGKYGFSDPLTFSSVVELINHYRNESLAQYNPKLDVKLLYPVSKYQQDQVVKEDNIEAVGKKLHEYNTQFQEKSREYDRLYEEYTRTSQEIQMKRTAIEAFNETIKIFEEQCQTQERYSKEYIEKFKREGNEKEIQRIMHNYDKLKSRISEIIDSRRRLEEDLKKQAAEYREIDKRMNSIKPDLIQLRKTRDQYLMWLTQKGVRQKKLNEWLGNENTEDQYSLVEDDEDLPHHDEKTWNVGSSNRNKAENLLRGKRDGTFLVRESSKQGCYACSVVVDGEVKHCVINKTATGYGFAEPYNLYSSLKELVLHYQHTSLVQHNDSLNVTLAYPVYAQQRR

Structure (SMILES)	IC50 [1] [µM]	EC50 [2] [µM]
CC(=O)Nc1cn2cc(-c3ccc(N)nc3C)ccc2n1 [Example 144, N-(6-(6-amino-2-methylpyridin-3-yl)imidazo[1,2-a]pyridin-2-yl)acetamide]	< 1	< 25
COc1nc(-c2cc(F)c3nc(NC(C)=O)cn3c2)cnc1N [Example 145, N-(6-(5-amino-6-methoxypyrazin-2-yl)-8-fluoroimidazo [1,2-a]pyridin-2-yl)acetamide]	< 1	< 25
CC(=O)NC1CCN(C(=O)Nc2cn3cc(-c4cnc(N)c(C(F)(F)F)c4)ccc3n2)C1 (centres unmarked) [Example 146, 3-acetamido-N-(6-(6-amino-5-(trifluoromethyl)pyridin-3-yl)imidazo[1,2-a]pyridin-2-yl)pyrrolidine-1-carboxamide]	< 1	< 25
CC(=O)Nc1cn2cc(-c3cnc(N)c(C(=O)NCCO)n3)ccc2n1 [Example 147, 6-(2-acetamido-imidazo[1,2-a]pyridin-6-yl)-3-amino-N-(2-hydroxyethyl) pyrazine-2-carboxamide]	< 1	< 25
NC(=O)N1CC[C@H]1C(=O)Nc1cn2cc(-c3cnc(N)c(C(F)(F)F)c3)ccc2n1 [Example 148, (S)-N2-(6-(6-amino-5-(trifluoromethyl)pyridin-3-yl)imidazo[1,2-a]pyridin-2-yl)azetidine-1,2-dicarboxamide]	< 1	< 25
CC(=O)Nc1cn2cc(-c3cnc(N)c(OC4CNC4)n3)ccc2n1 [Example 149, N-(6-(5-amino-6-(azetidin-3-yloxy)pyrazin-2-yl)imidazo[1,2-a]pyridin-2-yl)acetamide]	< 1	< 25
CO/N=C/c1cc(-c2ccc3nc(NC(C)=O)cn3c2)cnc1N [Example 150, (E)-N-(6-(6-amino-5-((methoxy-imino)methyl)pyridin-3-yl)imidazo[1,2-a]pyridin-2-yl)acetamide]	< 1	< 25
Nc1ncc(-c2ccc3nc(NC(=O)N4CCC(C(=O)O)C4)cn3c2)cc1C(F)(F)F (centres unmarked) [Example 151]	< 1	< 25
CC(=O)Nc1cn2cc(-c3cnc(N)c(C(=O)N4CCN(C(=O)OC(C)(C)C)CC4)c3)ccc2n1 [Example 152, tert-butyl 4-(5-(2-acetamido-imidazo[1,2-a]pyridin-6-yl)-2-aminonicotinoyl) piperazine-1-carboxylate]	< 1	< 25
COCCOc1nc(-c2ccc3nc(NC(=O)C4CCN4)cn3c2)cnc1N (centres unmarked) [Example 153, N-(6-(5-amino-6-(2-methoxyethoxy)pyrazin-2-yl)imidazo[1,2-a]pyridin-2-yl)azetidine-2-carboxamide]	< 1	< 25
CNC(=O)C1CCN(C(=O)Nc2cn3cc(-c4cnc(N)c(C(F)(F)F)c4)ccc3n2)C1 (centres unmarked) [Example 154, N1-(6-(6-amino-5-(trifluoromethyl)pyridin-3-yl)imidazo[1,2-a]pyridin-2-yl)-N3-methylpyrrolidine-1,3-dicarboxamide]	< 1	< 25
CC(=O)Nc1cn2cc(-c3cnc(N)c(C(=O)N4CCCC4)c3)ccc2n1 [Example 155, N-(6-(6-amino-5-(pyrrolidine-1-carbonyl)pyridin-3-yl)imidazo[1,2-a]pyridin-2-yl)acetamide]	< 1	< 25
C/C=C\c1c(NC(C)=O)nc2ccc(-c3cnc(N)c(C(F)(F)F)c3)cn12 [Example 156, (Z)-N-(6-(6-amino-5-(trifluoromethyl)pyridin-3-yl)-3-(prop-1-enyl)imidazo [1,2-a]pyridin-2-yl)acetamide]	< 1	< 25
CC(=O)Nc1cn2cc(-c3cnc(N)c(/C=N/OC(C)(C)C)c3)ccc2n1 [Example 157, (E)-N-(6-(6-amino-5-((tert-butoxyimino)methyl)pyridin-3-yl)imidazo[1,2-a]pyridin-2-yl)acetamide]	< 1	< 25
CC(=O)Nc1cn2cc(-c3cnc(N)c(C(=O)NCCNS(C)(=O)=O)n3)ccc2n1 [Example 158, 6-(2-acetamido-imidazo[1,2-a]pyridin-6-yl)-3-amino-N-(2-(methylsulfon amido)ethyl) pyrazine-2-carboxamide]	< 1	< 25
N#Cc1ccc(C(=O)Nc2cn3cc(-c4cnc(N)c(C(F)(F)F)c4)ccc3n2)cc1 [Example 159, N-(6-(6-amino-5-(trifluoromethyl)pyridin-3-yl)imidazo[1,2-a]pyridin-2-yl)-4-cyanobenzamide]	< 1	< 25
CC(=O)Nc1cn2cc(-c3cnc(N)c(C(=O)N4CCNCC4)c3)ccc2n1 [Example 160, N-(6-(6-amino-5-(piperazine-1-carbonyl)pyridin-3-yl)imidazo[1,2-a]pyridin-2-yl)acetamide]	< 1	< 25

Structure (SMILES)	IC50 [1] [µM]	EC50 [2] [µM]
CC(=O)Nc1cn2cc(-c3cnc(N)cn3)ccc2n1 [Example 161, N-(6-(5-aminopyrazin-2-yl)imidazo[1,2-a]pyridin-2-yl)acetamide]	< 1	< 25
CC(=O)Nc1ccc(-c2c(NC(C)=O)nc3ccc(-c4cnc(N)c(C(F)(F)F)c4)cn23)cc1 [Example 162]	< 1	< 25
Nc1ncc(-c2ccc3nc(NC(=O)c4ccncc4)cn3c2)cc1C(F)(F)F [Example 163]	< 1	< 25
CC(=O)Nc1cn2cc(-c3cnc(N)c(Br)n3)ccc2n1 [Example 164, N-(6-(5-amino-6-bromopyrazin-2-yl)imidazo[1,2-a]pyridin-2-yl)acetamide]	< 1	< 25
COC[C@@H]1CCCN1C(=O)Nc1cn2cc(-c3cnc(N)c(C(F)(F)F)c3)ccc2n1 [Example 165, (S)-N-(6-(6-amino-5-(trifluoromethyl)pyridin-3-yl)imidazo[1,2-a]pyridin-2-yl)-2-(methoxymethyl) pyrrolidine-1-carboxamide]	< 1	< 25
CC(C)(C)OC(=O)N1CCC[C@H]1C(=O)Nc1cn2nc(-c3cnc(N)c(C(F)(F)F)c3)ccc2n1 [Example 166, (S)-tert-butyl 2-(6-(6-amino-5-(trifluoromethyl)pyridin-3-yl)imidazo[1,2-b]pyridazin-2-ylcarbamoyl) pyrrolidine-1-carboxylate]	< 1	< 25
COc1cc(-c2ccc3nc(NC(C)=O)cn3c2C)cnc1N [Example 167, N-(6-(6-amino-5-methoxypyridin-3-yl)-5-methylimidazo[1,2-a]pyridin-2-yl)acetamide]	< 1	< 25
C=Cc1c(NC(C)=O)nc2ccc(-c3cnc(N)c(C(F)(F)F)c3)cn12 [Example 168, N-(6-(6-amino-5-(trifluoromethyl)pyridin-3-yl)-3-vinylimidazo[1,2-a]pyridin-2-yl)acetamide]	< 1	< 25
CC(C)(C)OC(=O)N1CC[C@H]1C(=O)Nc1cn2cc(-c3cnc(N)c(C(F)(F)F)c3)ccc2n1 [Example 169, (S)-tert-butyl 2-(6-(6-amino-5-(trifluoromethyl)pyridin-3-yl)imidazo[1,2-a]pyridin-2-ylcarbamoyl) azetidine-1-carboxylate]	< 1	< 25
CC(=O)Nc1cn2nc(-c3cnc(N)cn3)ccc2n1 [Example 170]	< 1	< 25
CC(=O)Nc1cn2cc(-c3cnc(N)c(C(F)(F)F)c3)c(F)cc2n1 [Example 171, N-(6-(6-amino-5-(trifluoromethyl)pyridin-3-yl)-7-fluoroimidazo [1,2-a]pyridin-2-yl)acetamide]	< 1	< 25
CC(=O)N1CCC[C@H]1C(=O)Nc1cn2cc(-c3cnc(N)c(C(F)(F)F)c3)ccc2n1 [Example 172, (S)-1-acetyl-N-(6-(6-amino-5-(trifluoromethyl)pyridin-3-yl)imidazo[1,2-a]pyridin-2-yl)pyrrolidine-2-carboxamide]	< 1	< 25
CC(=O)Nc1cn2cc(-c3cnc(N)c(CN4CCCC4)c3)ccc2n1 [Example 173, N-(6-(6-amino-5-(pyrrolidin-1-ylmethyl)pyridin-3-yl)imidazo[1,2-a]pyridin-2-yl)acetamide]	< 1	< 25
CC(C)(C)OC(=O)N1CCC1C(=O)Nc1cn2cc(-c3cnc(N)c(OCC(F)(F)F)n3)ccc2n1 (centres unmarked) [Example 174, tert-butyl 2-(6-(5-amino-6-(2,2,2-trifluoroethoxy)pyrazin-2-yl)imidazo[1,2-a]pyridin-2-ylcarbamoyl) azetidine-1-carboxylate]	< 1	< 25
Nc1ncc(-c2ccc3nc(NC(=O)N4CCCC4c4ccccn4)cn3c2)cc1C(F)(F)F (centres unmarked) [Example 175, N-(6-(6-amino-5-(trifluoromethyl)pyridin-3-yl)imidazo[1,2-a]pyridin-2-yl)-2-(pyridin-2-yl)pyrrolidine-1-carboxamide]	< 1	< 25
CC(=O)Nc1cn2nc(-c3cnc(N)c(N4CCOCC4)n3)ccc2n1 [Example 176, N-(6-(5-amino-6-morpholino-pyrazin-2-yl)imidazo[1,2-b]pyridazin-2-yl)acetamide]	< 1	< 25
Nc1ncc(-c2ccc3nc(NC(=O)c4ccccn4)cn3c2)cc1C(F)(F)F [Example 177]	< 1	< 25
